This is an account of results in publication PMC8881501, “Identification of SARS-CoV-2 inhibitors targeting Mpro and PLpro using in-cell-protease assay” (Communications Biology, 2022).

For series [1], the target named is T1, SARS-CoV-2 Mpro (Severe acute respiratory syndrome coronavirus 2, UniProt P0DTC1). Nature of the series: biochemical. As for the experimental part: A cleavage site is indicated by an asterisk. […] N = 3, values are represented as mean ± SE.
For the determination of half-maximal inhibitory concentrations (IC50) of MG-101 and GC376 (BPS Bioscience), a synthetic substrate of Mpro containing FRET pair and Mpro nsp4/5 cleavage site (indicated by an arrow, Dabcyl-KTSAVLQ ↓ SGFRKME-Edans) (BPS Bioscience) was used for the FRET-based cleavage assay. The assay was performed in 96-well, black, flat-bottomed microtiter plates (Greiner Bio-One, Germany) with a final volume of 50 μl. Mpro (a final concentration of 200 nM) was pre-incubated for 1 h at 22 °C with compounds at different concentrations in the assay buffer (20 mM HEPES (pH 7), 0.5 mM EDTA, 1 mM dithiothreitol, 5% glycerol). The substrate was then added at a final concentration of 10 μM to the reaction mixture and the reaction was incubated for 4 h at 22 °C. The readings for the different concentrations of the inhibitor compounds incubated with the substrate without Mpro were measured as a blank. The fluorescence signals (excitation/emission, 360 nm/460 nm) of released EDANS were measured using Infinite 200 PRO multimode plate reader (Tecan, USA). The results were plotted as dose inhibition curves using nonlinear regression with a variable slope to determine the IC50 values of inhibitor compounds using GraphPad Prism 9.0.

Series [2] relates to SARS-CoV-2. The experiment in a line: Time of addition (pre-treatment) experiment in Huh-7.5 cells, plaque assay. Conditions: Huh-7.5, pretreatment. In kind it is cell-based.
The subject of the next series is HEK293T cells. The experiment in a line: Cell viability (alamarBlue) on HEK293T cells. Conditions: replicate data, listed as Lycorine hydrochloride. (In general: Resazurin is reduced to fluorescent resorufin, in cell work by metabolically active cells.)
The test system of series [3] is SARS-CoV-2. Nature of the series: microbe, parasite or virus in culture. In kind it is cell-based. To be noted: for EC50: Severe acute respiratory syndrome coronavirus 2, Huh7.5, 24 h.
A short description of series [4]: Cytotoxicity assay (alamarBlue) on Huh-7.5 cells. Conditions: human, CC50, Huh-7.5 cells, alamarBlue reduction.
Another series has as its system Huh-7.5 cells. The experiment in a line: Cytotoxicity assay (alamarBlue) on Huh-7.5 cells. Conditions: Huh-7.5 cells, alamarBlue reduction.
Series [5] concerns SARS-CoV-2. To be noted: Vero E6 cells; cited from earlier work.
For the next series, the system named is SARS-CoV. To be noted: Vero E6 cells; cited from earlier work.
In series [6] the test system is SARS-CoV-2. Type of series: cell-based. To be noted: Huh-7.5, MOI 0.1, 24 h.p.i., anti-N IFA.
The target in series [7] is T1, SARS-CoV-2 Mpro. The experiment in a line: In-cell protease (ICP) assay, Mpro construct in HEK293T cells. To be noted: HEK-293T; for remaining activity at 1 µM: read-out: mEmerald-NLS nuclear/total fluorescence (protease activity) normalized to untreated cells, 1 μM, HEK293T, Fig 2A replicate data, untreated control = 100; for remaining activity at 10 µM: read-out: mEmerald-NLS nuclear/total fluorescence (protease activity) normalized to untreated cells, 10 μM, HEK293T, Fig 2A replicate data, untreated control = 100. In kind it is cell-based.

The nature of another series: in vitro. Conditions: human, CC50, Huh-7.5 cells, alamarBlue reduction.
The next series deals with Mpro. To be noted: thermal shift assay as worded; cited from earlier work.
The next series addresses SARS-CoV-2 PLpro (Severe acute respiratory syndrome coronavirus 2, UniProt P0DTC1). Nature of the series: cell-based. Conditions: HEK-293T.

“And” between values parts separate entries of the source, which are not always exact repeats. Equal values may be shown once. Where a name gives a salt, the structure may show the parent alone. Read-outs that look alike come from different tables or passages of the source. Non-standard residues stand in square brackets, D forms with d. Residues, ends and D or L forms follow the SMILES beside them. Nle = CCCC[C@H](N)C(=O)O

By EC50 is commonly meant the concentration giving half of the maximal effect. By CC50 is commonly meant the concentration giving 50% cytotoxicity. The low end stands for harm at low concentration, the high end for better tolerance by the cells. The term IC50 denotes the midpoint of a concentration-inhibition curve.

As to `O[C@H]1[C@H]2c3cc4c(cc3CN3CCC(=C[C@@H]1O)[C@H]23)OCO4` [Lycorine HCl], the “inhibition of Mpro protease activity” value against SARS-CoV-2 Mpro [1] (FRET assay) is recorded as “not found to be effectively inhibiting the Mpro protease activity”. Also, the “effect of pre-treatment on virus production / entry” value with SARS-CoV-2 [2] is given as “only minimal effect on virus production”. For the same molecule, the “% normalised alamar Blue reduction at 10μM” value with HEK293T cells is 76% and 65% and 69.32%. For the same molecule, in the series on SARS-CoV-2 [3] (Huh-7.5 cells), the “Selectivity index SI = CC50/EC50” value turned out to be 1878. The EC50 in the series on SARS-CoV-2 [3] was 10 nM; with SARS-CoV-2 [5], 300 nM; with SARS-CoV, 16 nM. Besides, the half-maximal cytotoxic concentration (CC50) at 24 h in [4] stood at 18800 nM. In addition, in the series on Huh-7.5 cells, the CC50 is 19000 nM. Also, the “inhibition of virus spread compared to untreated controls” value in the series with SARS-CoV-2 [6] came to 88%. For the same molecule, the remaining activity at 1 µM at SARS-CoV-2 Mpro [7] was found to be 43%. Also, the remaining activity at 10 µM on SARS-CoV-2 Mpro [7] was determined as 25%.

In the series “in vitro”, `CCCC[C@@H](C=O)NC(=O)[C@H](CC(C)C)NC(=O)[C@H](CC(C)C)NC(C)=O` [MG-101] (Ac-Leu-Leu-[Nle]-aldehyde) registered a CC50 at 24 h of 37000 nM. For the same molecule, the IC50 on SARS-CoV-2 Mpro [1] (Mpro 200 nM, substrate 10 μM, 1 h pre-incubation, read-out: IC50) was 2890 ± 860 nM; in the series on Mpro, 8600 nM. In the series with SARS-CoV-2 [2], the “effect of pre-treatment on virus production / entry” value is “affect the virus entry”. Further, the “reduction in virus titer on pretreatment of cells” value in the series with SARS-CoV-2 [2] was determined as 1 log. In addition, the remaining activity at 1 µM was 68% at SARS-CoV-2 PLpro (read-out: mEmerald-NLS nuclear/total fluorescence (protease activity) normalized to untreated cells, 1 μM, HEK293T, Fig 2A replicate data, untreated control = 100) and 22% at SARS-CoV-2 Mpro [7]. Further, the remaining activity at 10 µM turned out to be 70% at SARS-CoV-2 PLpro (read-out: mEmerald-NLS nuclear/total fluorescence (protease activity) normalized to untreated cells, 10 μM, HEK293T, Fig 2A replicate data, untreated control = 100) and 8.9% at SARS-CoV-2 Mpro [7]. Besides, the EC50 with SARS-CoV-2 [3] came to 38 nM. Moreover, in the series with SARS-CoV-2 [3] (single drug 1 μM, Huh 7.5, replicates), the “virus titer at 24 h.p.i., Fig 6A data” value was 48000 and 56000 and 44000. Moreover, in the series with SARS-CoV-2 [6], the “inhibition of virus spread compared to untreated controls” value is reported as 95%.
